Test results published in patent EP1561465A2, “Methods of use of fluoroquinolone compounds against bacteria” (LG Life Sciences, Ltd., priority 1999, dated 2001).
≈ marks a conversion by molar mass, not a printed value. Where two headings read alike, the source gives them in different places.

What was measured:
Type in all cases: cell-based
[1] = tested on: anaerobic cocci and Gram positive pathogens; experiment: organism not typed; conditions: read-out: MIC90s
[2] = tested on: E. coli; experiment: MIC and MBC by microdilution in Mueller-Hinton broth, uropathogens
Description: MICs and MBCs were determined by a microdilution method with Mueller-Hinton broth. An inoculum of 1.3-9.4 x 10^5 colony forming units (CFU) per ml was used.
Strains included a reference strain E. coli ATCC 25922, susceptible to nalidixic acid (Nal-S) and the following clinical isolates obtained from complicated UTI patients: E. coli (resistant to nalidixic acid), K. pneumoniae, P. mirabilis , P. aeruginosa, […] (3 strains) and Enterococcus faecalis (2 strains).

[3] = tested on: enteropathogenic bacterial strains; experiment: MIC by agar dilution (NCCLS M7-A4), enteropathogenic isolates pooled; conditions: all enteropathogenic isolates except C. jejuni
[4] = E. coli ATCC 25922, inoculum 1.3 CFU 10^5/ml
[5] = E. coli Laboratory No. 523, inoculum 3.4 CFU 10^5/ml
[6] = Escherichia coli, ATCC25922, E. coli ATCC 25922 (reference strain), read-out: MIC
[7] = Escherichia coli, ATCC25922, E. coli ATCC 25922, inoculum 1.3 CFU 10^5/ml
[8] = Escherichia coli, E. coli Laboratory No. 523, inoculum 3.4 CFU 10^5/ml
[9] = Escherichia coli, E. coli clinical isolate (0.06/0.5), read-out: MIC

SMILES | MIC [1] [µg/mL] | MIC [2, 4] [µg/mL] | MIC [2, 5] [µg/mL] | MIC [2, 6] [µg/mL] | MBC [2, 7] [µg/mL] | MBC [2, 8] [µg/mL] | MIC [2, 9] [µg/mL] | concentration inhibiting 100% of isolates [3] [mg/L]
CO/N=C1\CN(c2nc3c(cc2F)c(=O)c(C(=O)O)cn3C2CC2)CC1CN (racemic) [Gemifloxacin, (R,S)-7-(3-aminomethyl-4-methoxyiminopyrrolidin-1-yl)-1-cyclopropyl-6-fluoro-4-oxo-1,4-dihydro-1,8-naphthyridine-3-carboxylic acid] | 0.125 to 2 (≈ 0.321 to 5.14 µM) | 0.016 (≈ 0.0411 µM) | 0.06 (≈ 0.154 µM) | 0.016 (≈ 0.0411 µM) | 0.016 (≈ 0.0411 µM) | 0.06 (≈ 0.154 µM) | 0.06 (≈ 0.154 µM) | 0.25
CC1COc2c(N3CCN(C)CC3)c(F)cc3c(=O)c(C(=O)O)cn1c23 (centres unmarked) [Ofloxacin, ofloxacin] | – | 0.06 (≈ 0.166 µM) | 0.5 (≈ 1.38 µM) | 0.06 (≈ 0.166 µM) | 0.06 (≈ 0.166 µM) | 0.5 (≈ 1.38 µM) | 0.5 (≈ 1.38 µM) | –
